This is an account of results in patent US10478437B2, “Combination therapy to enhance the anticancer efficacy of platinum drugs” (University of Pittsburgh-of the Commonwealth System of …, priority 2014, dated 2019).

Bounds are passed on as bounds.

Data set [1] has as its system A2780cis cells. In words: Short-term (3 h) exposure, cell survival by CellTiter-Blue after 48 h in compound free media. Format: cell-based, human. To be noted: 20 μM compound with various doses of cisplatin, viability after two days, in words. How it is done:
FIG. 5. Short-term exposure of A2780cis cells to the combination of cisplatin and compound 1-6 dramatically reduces cell survival. A2780cis cells were treated with increasing doses of cisplatin alone or the combination of cisplatin with compound 1-6 (20 μM) for 3 h. The compounds were then washed out. Cell survival was determined after 48 h incubation of cells in compound free media by CellTiter-Blue assay.
Further analysis was performed with compound 1-6. […] This synergism for the combination of cisplatin and 1-6 was further confirmed using a fresh sample of high chemical purity (98%). This synergistic effect was also observed using the CellTiter-Blue cell viability assay (FIG. 5) under an alternative exposure strategy that mimics in viva drug administration to test the combination effect. Considering the clearance of cisplatin over the time and the duration of exposure of tumor cells to the effective doses of the drugs in vivo (Los et al., 1989), a short-term exposure of cells to the combination of 20 μM of 1-6 with various doses of cisplatin was tested, followed by cell viability assay after two days.
A general note: The colour change of resazurin is a common sign of viable cells or microbes.

The subject of data set [2] is cisplatin-resistant ovarian cancer cell line A2780cis. In words: CellTiter-Blue cell viability assay, compound alone or with cisplatin or carboplatin, 24 h. Format: cell-based, human. To be noted: for Combination Index: CompuSyn software. An outline of the steps:
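A2780cis cells received compound at 10, 20 or 50 μM, alone or with cisplatin or carboplatin, for 24 h before CellTiter-Blue viability read-out. Data are mean±SD, combinations vs compound alone compared by Student's t test (P<0.05), and combination index computed by the Chou method.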

The test system of data set [3] is Bax/Bak wildtype (WT) and double knockout (DKO) MEF cells. In words: Western blot of Caspase-8, 9 and 3 cleavage in Bax/Bak WT and DKO cells. Format: cell-based, mouse. As to conditions: compound 20 μM + cisplatin 10 μM, 20 h, FIG. 8C; in words. The protocol: (§1) Whole cell lysate was prepared by lysing cells in cell lysis buffer (Cell signaling technology) containing complete protease inhibitor (Roche). Cell lysates were then cleared at 15,000 rpm for 15 min at 4° C. The protein content was quantified using a Bio-Rad Protein Assay kit (Bio-Rad Laboratories, Hercules, Calif.). The equal amount of protein was separated on Tris-glycine gels (Invitrogen). The separated proteins were blotted onto a polyvinylidene difluoride membrane and blocked overnight at 4° C. in phosphate-buffered saline containing 0.1% Tween 20 and 10% nonfat dry milk (blocking buffer). Membranes were incubated with primary antibodies in blocking buffer overnight at 4° C. Primary antibodies used were: β-actin from Sigma; Bax, Bak, Caspase-9 and cleaved Caspase-3 from Cell Signaling Technology; phospho-Histone H2AX (Ser 139) and Noxa from Millipore. Membranes were then washed and incubated in peroxidase conjugated anti-rabbit IgG (Sigma) or anti-mouse IgG (Sigma) secondary antibody for 1 h at room temperature. Membranes were developed using SuperSignal West Femto Maximum Sensitivity Substrate (Thermo Fisher Scientific).
In order to understand the role of Bax and Bak in the efficacy of cisplatin and compound 1-6, Bax/Bak double knockout (DKO) SV40-transformed MEF cells were used. […] The cleavage of Caspase-8, 9, and 3 were determined by western blot.
A general note: Immunoblotting shows a protein as a band on a membrane.

The subject of data set [4] is A2780cis cells. In words: Western blot of caspase/PARP cleavage, Noxa induction, RPA32 and H2AX phosphorylation. The data set is classed as cell-based, human. As to conditions: compound 20 μM + cisplatin 20 μM. How it is done:
as §1
A2780cis cells were treated with cisplatin alone, compounds alone or in combination with cisplatin at indicated concentrations for 20 h to analyze apoptotic cell death in response to treatment. […] Expression and cleavage of several major caspases (Caspase-8, Caspase-9 and Caspase-3), as well as poly(ADP-ribose) polymerase (PARP) and NOXA. A2780cis cells were treated with cisplatin (20 μM) alone, compounds (20 μM) alone or in combination with cisplatin for 20 h.
To determine the effects of the compounds on DNA damage and mitochondrial dysfunction, A2780cis cells were treated with cisplatin (20 μM) alone or the combination of cisplatin with 20 μM of compound 1-6. Replication protein A (RPA) is a single strand-specific DNA-binding protein, consisting of three subunits, RPA70, RPA32, and RPA14. RPA32 is phosphorylated in response to DNA replication stress. Western blot analysis was performed to evaluate the phosphorylation of RPA32 and histone H2AX, the induction of Noxa expression and cleavage of caspase-3. […] A2780cis cells were treated with cisplatin (50 μM) alone, 1-6 (50 μM) alone or the combination of cisplatin and compound 1-6 for 4 h. The oxygen consumption rate (OCR) was measured by a Seahorse extracellular flux analyzer.

Data set [5] relates to A2780cis cells. Put plainly: Extracellular flux analysis, oxygen consumption rate (OCR), Seahorse XF24. The data set is classed as cell-based, human. As to conditions: compound 50 μM + cisplatin 50 μM, 4 h, FIG. 8B; in words. How it is done:
Oxygen consumption rate (OCR) and extracellular acidification rate (ECAR) were measured as previously described (Qian and Van Houten, 2010). Cells were seeded in XF24 cell culture plates at 4×10^4 cells/well and incubated in 5% CO2 at 37° C. Prior to the analysis, cells were washed and growth medium was replaced with bicarbonate-free modified RPMI 1640 medium, the “assay medium” (Molecular Devices, Sunnyvale, Calif.). Cells were then incubated for another 60 min in a 37° C. incubator without CO2. OCR and ECAR measurements were then performed simultaneously using a Seahorse XF24 Extracellular Flux Analyzer (Seahorse Bioscience, North Billerica, Mass.).
To determine the effects of the compounds on DNA damage and mitochondrial dysfunction, A2780cis cells were treated with cisplatin (20 μM) alone or the combination of cisplatin with 20 μM of compound 1-6. Replication protein A (RPA) is a single strand-specific DNA-binding protein, consisting of three subunits, RPA70, RPA32, and RPA14. RPA32 is phosphorylated in response to DNA replication stress. Western blot analysis was performed to evaluate the phosphorylation of RPA32 and histone H2AX, the induction of Noxa expression and cleavage of caspase-3. […] The oxygen consumption rate (OCR) was measured by a Seahorse extracellular flux analyzer.

Where [6] appears, read: compound 10 μM with cisplatin (20 μM).
The mark [7] stands for this setting: compound 20 μM with cisplatin (20 μM).
The mark [8] stands for this setting: compound 50 μM with cisplatin (20 μM).

`CCOCCCn1c(=S)[nH]c2c(C)cccc2c1=O` [Compound 1-6]: in data set [1], the “effect of 3 hr exposure to the combination with cisplatin on proliferation” value is reported as “severe long-term proliferation defect”. Also, in data set [2] (24 h, FIG. 6, in words), the “cell viability after combination with carboplatin compared to carboplatin alone” value is “cell viability was reduced”. For the same compound, the viability at 10 µM in data set [2] (Homo sapiens, A2780cis, compound 10 μM, 24 h, untreated cells = 100%, read-out: survival (%) of cells with compound alone) came out at 98.9 ± 3.1%. Also, the viability at 20 µM in data set [2] (Homo sapiens, A2780cis, compound 20 μM, 24 h, untreated cells = 100%, read-out: survival (%) of cells with compound alone) is 95.4 ± 4.2%. For the same compound, the viability at 50 µM in data set [2] (Homo sapiens, A2780cis, compound 50 μM, 24 h, untreated cells = 100%, read-out: survival (%) of cells with compound alone) turned out to be 93.7 ± 4.4%. Also, the “Survival (%) of cells with compound and carboplatin (200 μM)” value in data set [2] (compound 10 μM + carboplatin 200 μM, 24 h) is 64.5 ± 2.7%; in data set [2] (compound 20 μM + carboplatin 200 μM, 24 h), 48.0 ± 3.0%; in data set [2] (compound 50 μM + carboplatin 200 μM, 24 h), 2.5 ± 0.4%. The “survival (%) of cells with compound and cisplatin (20 μM)” value in data set [2] (compound 10 μM + cisplatin 20 μM, 24 h) was determined as 58.8 ± 1.5%; in data set [2] (compound 20 μM + cisplatin 20 μM, 24 h), 28.0 ± 1.6%; in data set [2] (compound 50 μM + cisplatin 20 μM, 24 h), 1.5 ± 0.6%. Also, the “Grading (of combination index)” value in data set [2] (setting [6]) is reported as “Synergism”; in data set [2] (setting [7]), “Strong”; in data set [2] (setting [8]), “Very strong”. Also, the “Combination Index” value in data set [2] (setting [6]) is listed as 0.67; in data set [2] (setting [7]), 0.24; in data set [2] (setting [8]), 0.01. In addition, the “potency at enhancing the cytotoxicity of cisplatin compared to mdivi-1” value in data set [2] (compound 10 μM with cisplatin, FIG. 4, in words) is given as “more potent than mdivi-1”. Also, in data set [3], the “cleavage of caspases in Bax/Bak WT and DKO MEF cells, combination with cisplatin” value is “cleavage of Caspase 3 and 9 independent of Bax or Bak activity”. In addition, the “cleavage of caspases and PARP, induction of Noxa in combination with cisplatin” value in data set [4] (20 h, FIG. 7B, in words) was “cleavage of Caspase-8, 9, 3, PARP and the induction of Noxa”. Besides, in data set [4] (FIG. 8A), the “time of enhanced phosphorylation of RPA32 post treatment, combination with cisplatin” value is given as no more than 4 h. Besides, the “mitochondrial function (OCR, response to oligomycin) after combination with cisplatin” value in data set [5] was “uncoupling of mitochondria was observed”.
